The nature of data set [1]: Pharmacokinetics study in rats after intravenous administration. It counts as in vivo. The settings on record: male, Sprague-Dawley, rat, intravenous 10 mg/kg, plasma. As for the experimental part:
Six male Sprague–Dawley rats weighing 200 ± 10 g were obtained from the Laboratory Animal Center of Jinzhou Medical University. Approval of the study protocols was obtained from the Institutional Animal Ethics Committee before the commencement of the studies. Toddalolactone was administered intravenously into the tail vein at a dose of 10 mg/kg, and 0.5 mL of blood was collected through orbital venous plexus at 0, 0.25, 0.5, 0.75, 1, 2, 4, 6 and 8 h after toddalolactone administration and centrifuged at 2000 g for 5 min at 4 °C to obtain the plasma samples. The plasma (0.1 mL) was mixed with 200 μL acetonitrile, the mixture was vortexed for 30 s and then centrifuged at 20,000 g for 20 min and the supernatant was collected and analyzed by HPLC.
After intravenous administration of toddalolactone, blood samples were collected and the concentration of toddalolactone in plasma was determined. The mean plasma concentrations of toddalolactone versus time profiles are depicted in Figure 13. The pharmacokinetic (PK) parameters such as AUC0–t, t1/2, Tmax and Cmax were calculated by a noncompartmental method using the DAS 3.1 software package (Jiangxi University of Traditional Chinese Medicine, Nanchang, China).

A short description of data set [2]: Metabolic stability assessment in rat liver microsomes. It is filed as in vitro ADME. The conditions noted are these: pH 7.4, RLMs, toddalolactone 20 μM, 0-90 min. As for the experimental part: The CYP reaction system (200 μL) consisted of 0.1 M potassium phosphate buffer (pH 7.4), an NADPH-generating system (1 mM NADPH, 10 mM G-6-P, 1 unit/mL G-6-PD, 4 mM MgCl2), and liver microsomes or recombinant human microsomes (supersomes). Each of the in vitro enzymatic assays using liver microsomes was linear with respect to incubation time and amount of protein. After a pre-incubation at 37 °C for 3 min, the reactions were initiated by adding NADP^+. After incubating for 60 min, the reactions were quenched by adding 200 μL of ice-cold acetonitrile. Samples were centrifuged at 18,000 g for 15 min at 4 °C and 10 μL of supernatant was analyzed using an HPLC system. […]
In the UGT reaction system, liver microsomes were incubated in 200 μL of the reaction system containing 4 mM UDPGA, 5 mM MgCl2, 20 µg/mL alamethicin, and 50 mM Tris-HCl buffer (pH 7.4). […] After centrifugation at 18,000 g for 15 min, 10 μL of the supernatant was analyzed by HPLC.
Toddalolactone (20 μM) was incubated with different liver microsomes, including HLMs, DLMs, PLMs, MLMs, RAMs, RLMs or MIMs in oxidative metabolism and glucuronidation reaction systems. […] The mixtures were centrifuged at 18,000 g for 15 min at 4 °C and then 10 μL of the supernatant was analyzed by HPLC. […]
The peak areas of toddalolactone and its metabolites were detected using a HPLC system (Shimadzu, Kyoto, Japan). […]

A further data set concerns DLMs. Put plainly: Prediction of in vivo hepatic clearance in dogs from DLM kinetics. It is filed as in vitro ADME, dog. As to the method: The in vivo hepatic clearances in oxidative metabolism and glucuronidation of toddalolactone were calculated using Equations (4)–(6) (Li et al. [2008]): (4) CLint in vitro=∑i=1nVmax(Mi)/Km(Mi) (5) CLint in vivo=CLint in vitro⋅SF (6) CLH=QH⋅fu⋅CLint in vivo/QH+fu⋅CLint in vivo where SF is the milligrams of microsomal protein per gram of liver multiplied by the grams of liver weight; CLH is hepatic clearance; fu is the unbound fraction in the blood (the value of fu was set to 1 due to the absence of available data for toddalolactone); QH is the blood flow in the liver; and Mi is the metabolite of toddalolacone. The physiological parameters to calculate intrinsic clearance were as follows. The liver weight of dogs, rats and humans were 32, 40 and 25.7 g/kg body weight, respectively; the content of microsomal protein was 77.9, 44.8 and 48.8 mg/g of liver; and the blood flow in the liver was 30.9, 55.2 and 20.7 mL/(min ⋅ kg), respectively (Naritomi et al. [2001]).

Read-outs that look alike come from different tables or passages of the source.

In the case of `COc1cc2oc(=O)ccc2c(OC)c1C[C@@H](O)C(C)(C)O` [toddalolactone], the time to peak (Tmax) in data set [1] is 0.25 h. Further, the AUC(0-t) in data set [1] (0–8 h) was 460 ng·h/mL. The compound also gave a Cmax in data set [1] (mean of six) of 420 ng/mL. Besides, the half-life in data set [1] (read-out: elimination t1/2 (converted)) is 1.05 h. Also, the half-life at 20 μM in data set [2] (CYP incubation system, read-out: half-life value (T1/2)) was found to be 6.37 ± 0.283 h; in data set [2] (UGT incubation system, read-out: T1/2 value) it was 2.15 ± 0.197 h. Also, the “CLH versus hepatic blood flow (QH)” value in the data set on DLMs (DLMs) is listed as 5.41%. The “clearance class according to predicted CLH” value in the data set with DLMs (dogs) is “low-clearance (low-clearance drugs (<30% liver blood flow))”. The “in vivo hepatic clearance (CLH)” value with DLMs (dogs, predicted from kinetic parameters of P1–P6, fu set to 1) was 0.47 mL/(min/kg body weight).

Values taken from publication PMC9367672, “In vitro differences in toddalolactone metabolism in various species and its effect on cytochrome P450 expression” (Pharmaceutical Biology, 2022).
